From patent publication US10463590B1, “Antiplaque and dental health oral formulation” (priority 2018, dated 2019)

What was measured:
Assay type in all cases: cell-based
[1] = test system: Streptococcus mutans and Streptococcus sorbinus; experiment: Bacteriostatic effect, broth macro-dilution assay (OD600) after 24 h; conditions: 10 μg/ml amoxicillin (FIG. 7A)
Procedure: (§1) Two oral Streptococcus species, i.e., Streptococcus mutans AU159 strain and Streptococcus sorbinus SL1 strain, obtained from the American Type Culture Collection (Manassas, Va.), were tested in their two morphological forms: cocci planktonic form and biofilm. The stocks of both species were cultured in commonly used conditions, i.e., BHI broth (Remel, San Diego, Calif.) without antibiotics at 37° C. with 5% CO2, in sterile two-position cap 5 ml polypropylene test tubes.
Growth inhibition of Streptococcus mutans and Streptococcus sorbinus was tested using standard macro-dilution method according to guidance of American Society for Microbiology to establish MIC (Minimal Inhibitory Concentration) value. Briefly, sterile 3 ml test two-position capped tubes containing 1 ml BHI broth, supplemented with the test mix was inoculated with 1×10^7 CFU/ml of the homogenous bacterial suspension. The tubes were then incubated at 37° C. with 5% CO2 and growth inhibition as a decrease in the optical density (OD600) was measured after 24 h. The entire experiment was repeated three times for each strain. Control cultures were treated with DMSO (i.e., 0.1-0.4% v/v) alone or amoxicillin (i.e. 10 μg/ml).

[2] = test system: Streptococcus mutans and Streptococcus sorbinus; experiment: Bactericidal effect, broth macro-dilution combined with plating assay after 24 h; conditions: 10 μg/ml amoxicillin (FIG. 7B)
Procedure: as §1
The plates were then incubated at 37° C. with 5% CO2 and bacterial re-growth was assessed after 24 h. The entire experiment was repeated three times for each strain. Control cultures were treated with DMSO (i.e., 0.1-0.4% v/v) alone or amoxicillin (i.e. 10 μg/ml).

[3] = test system: biofilm of Streptococcus mutans and Streptococcus sorbinus; experiment: Preventive effect on biofilm formation, crystal violet staining assay after 24 h; conditions: 10 μg/ml amoxicillin (FIG. 7C)
Procedure: as §1
Preventive effect of the test mix against biofilm of Streptococcus mutans and Streptococcus sorbinus was evaluated by the commonly used crystal violet (CV) staining method, according to guidance of American Society for Microbiology to establish MBFC (Minimal Biofilm Formation Concentration) value. Briefly, 1×10^7 CFU/ml from homogeneous bacterial culture in BHI broth containing 1% sucrose, as a standard approach, was inoculated into saliva-coated 96-well plates and supplemented with the test mix. Control wells were treated with DMSO (i.e., 0.1-0.4% v/v) alone or amoxicillin (i.e., 10 μg/ml). All plates were then incubated at 37° C. with 5% CO2 for 24 h. […] The biofilms were carefully washed three times with 1×PBS (phosphate-buffered saline), and 200 μl of methanol was added to each well to extract a dye which was measured at 595 nm using a spectrophotometer (Molecular Device, Spectra Max 340). […]

[4] = test system: pre-existing biofilm of Streptococcus mutans and Streptococcus sorbinus; experiment: Pre-formed biofilm killing (biocidal) effect, alamar Blue assay after 24 h; conditions: 500 μg/ml amoxicillin (FIG. 7E)
Procedure: as §1
Qualitative and quantitative efficacy of the test mix against biofilm of Streptococcus mutans and Streptococcus sorbinus was evaluated by the commonly used crystal violet (CV) staining method supported by alamarBlue staining assay (where resazurin, a non-fluorescent indicator dye, is converted to bright red-fluorescent resorufin via the reduction reactions of metabolically active cells and the amount of fluorescence produced is proportional to the number of living cells) for evaluating cellular health, according to guidance of American Society for Microbiology and manufacturer's protocol to establish MBEC (Minimal Biofilm Eradication Concentration) and MBBC (Minimal Biofilm Biocidal Concentration) values. Briefly, 1×10^7 CFU/ml from homogeneous bacterial culture in BHI broth containing 1% sucrose, as a standard approach, was inoculated into saliva-coated 96-well plates and supplemented with the test mix. […]

CC1(C)S[C@@H]2[C@H](NC(=O)[C@H](N)c3ccc(O)cc3)C(=O)N2[C@H]1C(=O)O [amoxicillin]
bacteriostatic effect [1]: 100%
bactericidal effect [2]: 100%
preventive effect on biofilm formation [3]: approximately 99%
biocidal effect on pre-existing biofilm [4]: approximately 20%
